Source: publication PMC10698726 (Molecular Pharmaceutics, 2023)

Tests used:
OCT2 = biological target: T1, OCT2 (Homo sapiens, UniProt O15244); test: Inhibition of model substrate uptake in OCT2-overexpressing HEK293 cells; conditions: for IC50: IC50, OCT2, Table S5, 2 μM ASP+ as model substrate; for selectivity ratio at 5 min / inhibition at 5 min, 20 μM: human, OCT2-overexpressing HEK293 cells; for selectivity ratio at 5 min: pH 7.4
T1 sequence (O15244 1-555): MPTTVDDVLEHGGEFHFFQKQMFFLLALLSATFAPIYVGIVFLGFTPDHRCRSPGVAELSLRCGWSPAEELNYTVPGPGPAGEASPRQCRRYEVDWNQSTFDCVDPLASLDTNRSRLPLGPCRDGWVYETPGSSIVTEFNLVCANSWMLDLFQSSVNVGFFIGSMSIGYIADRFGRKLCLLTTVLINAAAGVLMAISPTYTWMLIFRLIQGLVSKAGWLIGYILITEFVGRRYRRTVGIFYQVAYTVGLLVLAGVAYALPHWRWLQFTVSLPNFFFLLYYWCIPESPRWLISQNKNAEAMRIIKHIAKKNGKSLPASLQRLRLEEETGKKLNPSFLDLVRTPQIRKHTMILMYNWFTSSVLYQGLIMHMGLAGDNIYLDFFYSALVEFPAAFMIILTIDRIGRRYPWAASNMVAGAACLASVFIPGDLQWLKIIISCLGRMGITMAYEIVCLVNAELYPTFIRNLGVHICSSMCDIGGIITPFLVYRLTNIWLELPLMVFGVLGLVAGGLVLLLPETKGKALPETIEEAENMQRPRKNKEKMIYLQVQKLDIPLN

OCT3 = biological target: T2, OCT3 (Homo sapiens, UniProt O75751); test: Concentration-dependent uptake of model substrates, OCT3-overexpressing HEK293 cells; format: in vitro ADME; conditions: vmax over Km, this study
T2 construct: expressed in transfected cells; host or cells: HEK293
T2 sequence (O75751 1-556): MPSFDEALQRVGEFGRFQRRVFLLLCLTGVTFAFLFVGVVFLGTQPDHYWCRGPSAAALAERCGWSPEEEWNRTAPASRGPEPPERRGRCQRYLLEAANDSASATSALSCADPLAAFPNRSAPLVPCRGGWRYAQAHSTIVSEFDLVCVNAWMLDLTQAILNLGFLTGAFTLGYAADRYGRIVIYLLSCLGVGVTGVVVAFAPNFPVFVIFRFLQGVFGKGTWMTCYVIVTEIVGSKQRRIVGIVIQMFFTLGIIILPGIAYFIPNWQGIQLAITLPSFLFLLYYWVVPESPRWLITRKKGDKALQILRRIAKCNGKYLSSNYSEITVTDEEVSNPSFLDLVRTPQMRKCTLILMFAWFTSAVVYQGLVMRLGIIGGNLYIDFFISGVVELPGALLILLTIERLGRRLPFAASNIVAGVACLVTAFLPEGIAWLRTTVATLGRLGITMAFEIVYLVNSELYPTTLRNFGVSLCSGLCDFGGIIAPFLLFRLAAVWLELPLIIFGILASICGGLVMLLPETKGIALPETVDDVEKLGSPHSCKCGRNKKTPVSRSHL
Description: Koepsell and Gorbulev (University of Würzburg, Germany).
Prior to inhibition studies, the used model substrates were validated in concentration-dependent uptake experiments if no literature data were available (Table S2 and Figures S2 and S3). Thereby, we ensured that the model substrate concentration used in the subsequent inhibition experiments was sufficiently below the Km value of its uptake kinetics. […] On the day of the experiment, the cells were washed once with prewarmed to 37 °C HBSS (Thermo Fisher Scientific, Darmstadt, Germany) supplemented with 10 mM HEPES and pH adjusted to 7.4 (Sigma-Aldrich)—hereafter termed HBSS+. For concentration-dependent experiments, the cells were incubated with increasing substrate concentrations for 2 min. Uptake was terminated by adding ice-cold HBSS+. Afterward, the cells were washed twice with ice-cold HBSS+, and cell lysis was done with 80% (v/v) acetonitrile (LGC Standards, Wesel, Germany) to which an internal standard for eventual LC–MS/MS analysis had been added. Intracellularly accumulated substrates were then quantified by LC–MS/MS analysis, and calibration was performed with known concentrations of the respective substances. All uptake data were normalized to the number of seeded cells by measuring the total protein content in radioimmunoprecipitation assay buffer-lysed cells in a bicinchoninic acid assay.[29]

[1] = pH 7.4, probe ASP+ (2 μM), ASP+ inhibition [%], OCT2, 20 μM inhibitor, 2 μM ASP+, 5 min
[2] = pH 7.4, probe (S,S)-ethambutol (2 μM), (S,S)-Ethambutol inhibition [%], OCT2, 20 μM inhibitor, 2 μM (S,S)-ethambutol, 5 min
[3] = pH 7.4, probe N-ethyllidocaine (2 μM), N-Ethyllidocaine inhibition [%], OCT2, 20 μM inhibitor, 2 μM N-ethyllidocaine, 5 min

| SMILES | IC50 (OCT2; 5 min) | (S,S)-Ethambutol inhibition [%] (OCT2; OCT2, 20 μM inhibitor, 2 μM (S,S)-ethambutol, 5 min) | N-Ethyllidocaine inhibition [%] (OCT2; OCT2, 20 μM inhibitor, 2 μM N-ethyllidocaine, 5 min) | selectivity ratio at 5 min (OCT2) | inhibition at 5 min, 20 μM (OCT2; [1]) | Clint ± SEM (OCT3) | inhibition at 5 min, 20 μM (OCT2; [2]) | inhibition at 5 min, 20 μM (OCT2; [3]) |
| --- | --- | --- | --- | --- | --- | --- | --- | --- |
| CCN(CC)CC#CCOC(=O)[C@](O)(c1ccccc1)C1CCCCC1 [(R)-Oxybutynine] | 31.8 µM | 7.4% | 28.2% | 1.6 | 86.1% | – | – | – |
| CN(C)CCc1c[nH]c2ccc(C[C@H]3COC(=O)N3)cc12 [(S)-Zolmitriptan] | – | – | – | – | 17.2% | 24.0 | 13.3% | 7.3% |
| CCCN[C@H]1CCc2nc(N)sc2C1 [(S)-Pramipexole] | 82.4 µM | – | – | 4 | 16.4% | – | 15.8% | 19.6% |
